Measured values: patent US8952024B2, “Herbicidal pyrimidone derivatives” (E I du Pont de Nemours and Company, priority 2009, dated 2015)

How the values were obtained:
Assay in all cases: Test B pre-/postemergence plant response
Assay type in all cases: in vivo
kochia (Kochia scoparia) = conditions: Preemergence
Excerpt: (§1) Seeds of plant species selected from blackgrass (Alopecurus myosuroides), downy bromegrass (Bromus tectorum), green foxtail (Setaria viridis), Italian ryegrass (Lolium multiflorum), wheat (Triticum aestivum), wild oat (Avena fatua), deadnettle (henbit deadnettle, Lamium amplexicaule), galium (catchweed bedstraw, Galium aparine), bermudagrass (Cynodon dactylon), Surinam grass (Brachiaria decumbens), cocklebur (Xanthium strumarium), corn (Zea mays), large crabgrass (Digitaria sanguinalis), woolly cupgrass (Eriochloa villosa), giant foxtail (Setaria faberii), goosegrass (Eleusine indica), johnsongrass (Sorghum halepense), kochia (Kochia scoparia), lambsquarters (Chenopodium album), morningglory (Ipomoea coccinea), nightshade (eastern black nightshade, Solanum ptycanthum), yellow nutsedge (Cyperus esculentus), pigweed (Amaranthus retroflexus), ragweed (common ragweed, Ambrosia elatior), Russian thistle (Salsola kali), soybean (Glycine max), sunflower (common oilseed sunflower, Helianthus annuus) and velvetleaf (Abutilon theophrasti) were planted into a blend of loam soil and sand and treated preemergence with test compounds formulated in a non-phytotoxic solvent mixture which included a surfactant.
(§2) At the same time, plants selected from these crop and weed species and also winter barley (Hordeum vulgare), canarygrass (Phalaris minor), chickweed (Stellaria media) and windgrass (Apera spica-venti) were planted in pots containing Redi-Earth® planting medium (Scotts Company, 14111 Scottslawn Road, Marysville, Ohio 43041) comprising spaghnum peat moss, vermiculite, wetting agent and starter nutrients and treated with postemergence applications of some of the test chemicals formulated in the same manner. Plants ranged in height from 2 to 18 cm (1- to 4-leaf stage) for postemergence treatments.
(§3) Treated plants and controls were maintained in a greenhouse for 13 to 15 days, after which time all treated plants were visually evaluated and compared to controls. Plant response ratings, summarized in Table B, are based on a scale of 0 to 100 where 0 is no effect and 100 is complete control. A dash (-) response means no test result.

[1] = test system: lambsquarters (Chenopodium album)
Excerpt: as §1, §2, §3

[2] = test system: large crabgrass (Digitaria sanguinalis)
Excerpt: as §1, §2, §3

[3] = test system: pigweed (Amaranthus retroflexus)
Excerpt: as §1, §2, §3

[4] = test system: ragweed (common ragweed, Ambrosia elatior)
Excerpt: as §1, §2, §3

soybean (Glycine max) = test system: soybean (Glycine max)
Excerpt: as §1, §2, §3

[5] = test system: velvetleaf (Abutilon theophrasti)
Excerpt: as §1, §2, §3

wild oat (Avena fatua) = test system: wild oat (Avena fatua)
Excerpt: as §1, §2, §3

[6] = test system: yellow nutsedge (Cyperus esculentus)
Excerpt: as §1, §2, §3

[7] = 250 g ai/ha, Preemergence, 0 to 100 scale
[8] = Postemergence, 31 g ai/ha, scale 0 to 100 (0 no effect, 100 complete control)
[9] = Postemergence, 62 g ai/ha, scale 0 (no effect) to 100 (complete control), 13 to 15 days
[10] = Postemergence, 125 g ai/ha, visual rating after 13 to 15 days, scale 0 (no effect) to 100 (complete control)
[11] = Postemergence, 250 g ai/ha, scale 0 to 100
[12] = Preemergence, 31 g ai/ha, scale 0 to 100 (0 no effect, 100 complete control)
[13] = Preemergence, 62 g ai/ha, scale 0 to 100, 0 no effect, 100 complete control
[14] = Preemergence, 125 g ai/ha, 0 to 100 scale

SMILES: Cc1cccc(-n2c(-c3ccccc3)ncc(C(=O)C3=C(O)CCCC3=O)c2=O)c1C [Compound 27]
- Plant response rating, Kochia (kochia (Kochia scoparia); 31 g ai/ha, scale 0 to 100 (0 no effect, 100 complete control)): 100
- Plant response rating, Kochia (kochia (Kochia scoparia); 62 g ai/ha, scale 0 to 100, 0 no effect, 100 complete control): 100
- Kochia plant response rating (kochia (Kochia scoparia); 125 g ai/ha, 0 to 100 scale): 100
- Plant response rating, Lambsquarters [1, 7]: 100
- Plant response rating, Lambsquarters [1, 8]: 90
- Plant response rating, Lambsquarters [1, 9]: 95
- Plant response rating, Lambsquarters [1, 10]: 95
- Lambsquarters plant response rating [1, 11]: 98
- Plant response rating, Lambsquarters [1, 12]: 100
- Plant response rating, Lambsquarters [1, 13]: 100
- Lambsquarters plant response rating [1, 14]: 100
- Plant response rating, Crabgrass, Large [2, 7]: 100
- Plant response rating, Crabgrass, Large [2, 8]: 50
- Plant response rating, Crabgrass, Large [2, 9]: 50
- Plant response rating, Crabgrass, Large [2, 10]: 60
- Crabgrass, Large plant response rating [2, 11]: 60
- Plant response rating, Crabgrass, Large [2, 12]: 5
- Plant response rating, Crabgrass, Large [2, 13]: 80
- Crabgrass, Large plant response rating [2, 14]: 100
- Plant response rating, Pigweed [3, 7]: 100
- Plant response rating, Pigweed [3, 8]: 98
- Plant response rating, Pigweed [3, 9]: 98
- Plant response rating, Pigweed [3, 10]: 100
- Pigweed plant response rating [3, 11]: 100
- Plant response rating, Pigweed [3, 12]: 100
- Plant response rating, Pigweed [3, 13]: 100
- Pigweed plant response rating [3, 14]: 100
- Plant response rating, Ragweed [4, 7]: 100
- Plant response rating, Ragweed [4, 8]: 85
- Plant response rating, Ragweed [4, 9]: 98
- Plant response rating, Ragweed [4, 10]: 100
- Ragweed plant response rating [4, 11]: 100
- Plant response rating, Ragweed [4, 12]: 85
- Plant response rating, Ragweed [4, 13]: 85
- Ragweed plant response rating [4, 14]: 100
- Plant response rating, Soybean (soybean (Glycine max); [7]): 90
- Plant response rating, Soybean (soybean (Glycine max); [8]): 95
- Plant response rating, Soybean (soybean (Glycine max); [9]): 95
- Plant response rating, Soybean (soybean (Glycine max); [10]): 95
- Soybean plant response rating (soybean (Glycine max); [11]): 100
- Plant response rating, Soybean (soybean (Glycine max); [12]): 70
- Plant response rating, Soybean (soybean (Glycine max); [13]): 70
- Soybean plant response rating (soybean (Glycine max); [14]): 80
- Plant response rating, Velvetleaf [5, 7]: 95
- Plant response rating, Velvetleaf [5, 8]: 50
- Plant response rating, Velvetleaf [5, 9]: 60
- Plant response rating, Velvetleaf [5, 10]: 80
- Velvetleaf plant response rating [5, 11]: 90
- Plant response rating, Velvetleaf [5, 12]: 55
- Plant response rating, Velvetleaf [5, 13]: 85
- Velvetleaf plant response rating [5, 14]: 90
- Plant response rating, Oat, Wild (wild oat (Avena fatua); [7]): 50
- Plant response rating, Oat, Wild (wild oat (Avena fatua); [8]): 45
- Plant response rating, Oat, Wild (wild oat (Avena fatua); [9]): 50
- Plant response rating, Oat, Wild (wild oat (Avena fatua); [10]): 50
- Oat, Wild plant response rating (wild oat (Avena fatua); [11]): 65
- Plant response rating, Oat, Wild (wild oat (Avena fatua); [12]): 0
- Plant response rating, Oat, Wild (wild oat (Avena fatua); [13]): 0
- Oat, Wild plant response rating (wild oat (Avena fatua); [14]): 30
- Plant response rating, Nutsedge, Yellow [6, 7]: 90
- Plant response rating, Nutsedge, Yellow [6, 8]: 30
- Plant response rating, Nutsedge, Yellow [6, 9]: 40
- Plant response rating, Nutsedge, Yellow [6, 10]: 50
- Nutsedge, Yellow plant response rating [6, 11]: 55
- Plant response rating, Nutsedge, Yellow [6, 12]: 0
- Plant response rating, Nutsedge, Yellow [6, 13]: 20
- Nutsedge, Yellow plant response rating [6, 14]: 30
